Experiments:
KM mice = assay: Toxicity of liposomal formulations in KM mice
[1] = tested on: Prostate RM-1 Tumor Model; assay: Anti-tumor efficacies of topotecan liposomes on prostate RM-1 tumor model; type: in vivo, female C57 mice; conditions: single i.v. 10 mg/kg; for Tumor volume (mm^3): n = 10, x ± sd
Procedure: RM-1 […] cancer cells were collected, and diluted with 1640 medium. After dilution, the tumor cell number was modulated to 2.0×10^6 cells/ml. 0.2 mL of the tumor cell suspension containing about 4×10^5 tumor cells was inoculated into forward limb oxter subcutaneous tissue of female C57 mice under aseptic condition. Twelve days after inoculation, mice were randomized by tumor volume into groups and administered with a single i.v. injection at a dose of 10 mg/kg.
The mice were bred normally after administration. Tumor diameters were measured to dynamically evaluate anti-tumor efficacies of different formulations. Tumor volume (TV) was calculated with the following formula: TV=½×a×b^2, in which a and b represent length and width, respectively.
The tumor volumes were calculated by using the measurement results. The experiment data were analyzed using SPSS 11.5 statistics software.

[2] = dosage level 40.6 mg/kg topotecan, two female KM mice per group, 14 days

SMILES: CC[C@@]1(O)C(=O)OCc2c1cc1n(c2=O)Cc2cc3c(CN(C)C)c(O)ccc3nc2-1 [Free topotecan, topotecan]
- Number of Animals with >15% weight loss (KM mice; dosage level 32.5 mg/kg topotecan, two female KM mice per group, 14 days): 1
- Number of Animals with >15% weight loss (KM mice; [2]): 2
- number of dead animals (KM mice; [2]): 1
- order of toxicity (KM mice; topotecan formulations, KM mice): free topotecan<liposome having SBE-CD/TA as inner water phase<liposome having sucrose octasulfate as inner water phase
- suppression of tumor growth in comparison with 5% glucose for injection as control ([1]; RM-1 tumor model): did not significantly suppress the growth of tumor
- Tumor volume (mm^3) ([1]; day 0 after administration): 223.0 ± 65.7 mm^3
- Tumor volume (mm^3) ([1]; day 2 after administration): 484.0 ± 154.7 mm^3
- Tumor volume (mm^3) ([1]; day 4 after administration): 606.0 ± 183.1 mm^3
- Tumor volume (mm^3) ([1]; day 6 after administration): 1060.7 ± 393.0 mm^3
- Tumor volume (mm^3) ([1]; day 8 after administration): 1301.8 ± 563.7 mm^3
- Tumor volume (mm^3) ([1]; day 9 after administration): 1628.5 ± 835.4 mm^3
- Tumor volume (mm^3) ([1]; day 13 after administration): 3592.9 ± 1523.5 mm^3
- Tumor volume (mm^3) ([1]; day 15 after administration): 6639.3 ± 2388.2 mm^3

Source: US11357728B2, “Liposome having inner water phase containing sulfobutyl ether cyclodextrin salt” (CSPC ZHONGQI PHARMACEUTICAL TECHNOLOGY (SHIJIAZHUANG) CO., …, priority 2009, dated 2022)
